Data on 18 compounds can be found in article PMC8815882, “Screening the pandemic response box identified benzimidazole carbamates, Olorofim and ravuconazole as promising drug candidates for the treatment of eumycetoma” (PLoS Neglected Tropical Diseases, 2022).

Where two headings read alike, the source gives them in different places.

The test system of this assay is M. mycetomatis genome strain MM55. Kind of assay: CLSI M38-A2 based in vitro susceptibility screening (XTT or resazurin), growth at fixed concentration. The note with it: Madurella mycetomatis; for Percent fungal survival at 100 µM: read-out: Percentage survival at 100um, 100 uM A (second replicate column). Format: cell-based, Madurella mycetomatis. A general note: Tetrazolium assays rely on reduction of a dye to a coloured formazan, in cell work by metabolically active cells.

[1] abbreviates: mean of replicates, MM55, read-out: Percentage survival at 25um, 25 uM mean.
The mark [2] stands for this setting: replicate A, MM55, read-out: Percentage survival at 25um, 25 um A.
The mark [3] stands for this setting: replicate B, MM55, read-out: Percentage survival at 25um, 25 uM B.
The mark [4] stands for this setting: replicate C, MM55, read-out: Percentage survival at 25um, 25 uM C.
[5] abbreviates: mean of replicates, MM55, read-out: Percentage survival at 100um, 100 uM mean.
The mark [6] stands for this setting: replicate 1, MM55, read-out: Percentage survival at 100um, 100 uM A.
[7] abbreviates: replicate 2, MM55, read-out: Percentage survival at 100um, 100 uM A.
[8] abbreviates: replicate 3, MM55, read-out: Percentage survival at 100um, 100 uM A.
[9] abbreviates: mean, read-out: Percentage survival at 25um, 25 uM mean.
[10] abbreviates: replicate A, read-out: Percentage survival at 25um, 25 um A.
[11] abbreviates: replicate B, read-out: Percentage survival at 25um, 25 uM B.
Setting [12] is: replicate C, read-out: Percentage survival at 25um, 25 uM C.
Where [13] appears, read: mean, read-out: Percentage survival at 100um, 100 uM mean.
[14] abbreviates: replicate (first column), read-out: Percentage survival at 100um, 100 uM A.
Setting [15] is: replicate (second column), read-out: Percentage survival at 100um, 100 uM A.
Setting [16] is: replicate (third column), read-out: Percentage survival at 100um, 100 uM A.
The mark [17] stands for this setting: mean of three replicates, read-out: Percentage survival at 25um, 25 uM mean.
Where [18] appears, read: first replicate column, read-out: Percentage survival at 100um, 100 uM A.
The mark [19] stands for this setting: mean of three replicates, read-out: Percentage survival at 100um, 100 uM mean.
Where [20] appears, read: second replicate column, read-out: Percentage survival at 100um, 100 uM A.
[21] abbreviates: third replicate column, read-out: Percentage survival at 100um, 100 uM A.
Where [22] appears, read: mean of replicates, read-out: Percentage survival at 25um, 25 uM mean.
Setting [23] is: mean of replicates, read-out: Percentage survival at 100um, 100 uM mean.
Where [24] appears, read: replicate 1, read-out: Percentage survival at 100um, 100 uM A.
The mark [25] stands for this setting: replicate 2, read-out: Percentage survival at 100um, 100 uM A.
The mark [26] stands for this setting: replicate 3, read-out: Percentage survival at 100um, 100 uM A.
The mark [27] stands for this setting: replicate 1, read-out: Percentage survival at 100um, 100 uM A (first replicate column).
Setting [28] is: replicate 3, read-out: Percentage survival at 100um, 100 uM A (third replicate column).

On to `FC(F)(F)c1cc(C(F)(F)F)c2ccc3nc(-c4nnco4)cn3c2n1` [MMV690555], for which the activity at 25 µM under setting [1] came out at 91.6%, the activity at 25 µM under setting [2] worked out at 100%, the activity at 25 µM under setting [3] is 96.8% and the activity at 25 µM under setting [4] turned out to be 77.9%. Besides, the activity at 100 µM by setting is: under setting [5], 81.1%; under setting [6], 87%; under setting [7], 83.1%; under setting [8], 73.1%.
As to `O=C(Nc1cccc(C2=NCCN2)c1)c1ccc(-c2ccc(C(=O)Nc3cccc(C4=NCCN4)c3)cc2)cc1` [MMV1580853], the activity at 25 µM by setting is: under setting [9], 84.5%; under setting [10], 92.1%; under setting [11], 94.2%; under setting [12], 67.1%. Moreover, the activity at 100 µM was 55.8% under setting [13], 6.17% under setting [14], 92% under setting [15] and 69.2% under setting [16].
For `Cc1nc2ccc(Cl)cc2c(-c2ccccc2)c1CC(=O)O` [MMV1580801], the activity at 25 µM under setting [17] was found to be 86.1%, the activity at 25 µM under setting [10] turned out to be 87.4%, the activity at 25 µM under setting [11] amounted to 94.3% and the activity at 25 µM under setting [12] is 76.7%. Moreover, the activity at 100 µM is, setting by setting: under setting [18], 85.8%; under setting [19], 83.4%; under setting [20], 76.8%; under setting [21], 87.5%.
Consider `CCCCOC(=O)Nc1cc2nc(C3CCCCC3)[nH]c2cc1N(CC)CC` [MMV1578842], for which the activity at 25 µM under setting [22] is 88.1%, the activity at 25 µM under setting [10] turned out to be 97.2%, the activity at 25 µM under setting [11] amounted to 93.7% and the activity at 25 µM under setting [12] stood at 73.4%. Besides, the activity at 100 µM under setting [23] came to 93.8%, the activity at 100 µM under setting [24] was found to be 93.6%, the activity at 100 µM under setting [25] worked out at 90.8% and the activity at 100 µM under setting [26] worked out at 96.9%.
With `O=S(=O)(Nc1ccccc1)c1ccc(NC(=S)Nc2ccccc2)cc1` [MMV1578562], the activity at 25 µM under setting [22] is 90%, the activity at 25 µM under setting [10] is 93.2%, the activity at 25 µM under setting [11] was found to be 90.8% and the activity at 25 µM under setting [12] is 86.1%. Also, the activity at 100 µM runs as follows: under setting [23], 86%; under setting [24], 96.1%; under setting [25], 79.6%; under setting [26], 82.2%.
Regarding `NC1C2CC3CC(C2)CC1C3` (stereo not drawn) [MMV180402], the activity at 25 µM under setting [17] was 83.1%, the activity at 25 µM under setting [10] is 84.6%, the activity at 25 µM under setting [11] was found to be 88.7% and the activity at 25 µM under setting [12] came out at 76%. Moreover, the activity at 100 µM under setting [18] was determined as 78.9%, the activity at 100 µM under setting [19] was found to be 78%, the activity at 100 µM under setting [20] was found to be 67.8% and the activity at 100 µM under setting [21] came to 87.1%.
Turning to `CN(O)C(=O)c1cc2c(CN3CCC[C@H]3C(N)=O)cn(Cc3ccc(F)cc3)c2cn1` [MMV1782386], the activity at 25 µM under setting [1] was found to be 91.7%, the activity at 25 µM under setting [2] was 95%, the activity at 25 µM under setting [3] is 96.1% and the activity at 25 µM under setting [4] came out at 84%. The activity at 100 µM came out at 86% under setting [5], 87.4% under setting [6], 91.4% under setting [7] and 79.3% under setting [8].
For the compound `Nc1nc(=O)c(Br)c(-c2cccc(Cl)c2)[nH]1` [MMV1645152], the activity at 25 µM under setting [17] was found to be 84.5%, the activity at 25 µM under setting [10] worked out at 79.7%, the activity at 25 µM under setting [11] is 91.3% and the activity at 25 µM under setting [12] was found to be 82.6%. Moreover, the activity at 100 µM runs as follows: under setting [18], 87.5%; under setting [19], 75.8%; under setting [20], 77.5%; under setting [21], 62.2%.
In the case of `Cc1nc(N(C)C(=O)Cc2ccc(-c3ccccn3)cc2)sc1S(N)(=O)=O` [MMV1580486], the activity at 25 µM runs as follows: under setting [1], 82.6%; under setting [2], 102%; under setting [3], 96.5%; under setting [4], 49.6%. Further, the activity at 100 µM was found to be 83.5% under setting [5], 93.3% under setting [6], 93.6% under setting [7] and 63.7% under setting [8].
Consider `C=C(C)[C@@H]1CC[C@]2(C(=O)O)CC[C@]3(C)[C@H](CC[C@@H]4[C@@]5(C)CC[C@H](O)C(C)(C)[C@@H]5CC[C@]43C)[C@@H]12` [MMV638198], for which the activity at 25 µM runs as follows: under setting [1], 78.4%; under setting [2], 65.7%; under setting [3], 92.3%; under setting [4], 77.1%. For the same compound, the activity at 100 µM by setting is: under setting [5], 79.4%; under setting [6], 83.2%; under setting [7], 80.2%; under setting [8], 74.7%.
Regarding `COc1ccc(-n2cnc3cc(NCc4ccco4)ccc32)cc1` [MMV617332], the activity at 25 µM is 61.8% under setting [17], 70.4% under setting [10], 107% under setting [11] and 7.47% under setting [12]. The activity at 100 µM under setting [18] is 18.3%, the activity at 100 µM under setting [19] is 7.71%, the activity at 100 µM under setting [20] came to 3.66% and the activity at 100 µM under setting [21] was 1.23%.
With `Cc1ccccc1NC(=O)Nc1cccc([N+](=O)[O-])c1` [MMV1581029], the activity at 25 µM is, setting by setting: under setting [17], 89.2%; under setting [10], 95.8%; under setting [11], 97.7%; under setting [12], 74%. For the same compound, the activity at 100 µM reads like this: under setting [18], 95.6%; under setting [19], 92.5%; under setting [20], 104%; under setting [21], 77.8%.
In the case of `CN(C)CCNC(=O)c1cccc2cccnc12` [MMV811071], the activity at 25 µM under setting [22] came to 84.2%, the activity at 25 µM under setting [10] came out at 90.3%, the activity at 25 µM under setting [11] was determined as 90.7% and the activity at 25 µM under setting [12] was 71.6%. Also, the activity at 100 µM is, setting by setting: under setting [23], 85.2%; under setting [24], 79.4%; under setting [25], 92.5%; under setting [26], 83.6%.
`CCCCc1ccc(S(=O)(=O)Nc2cc(C)on2)cc1` [MMV1782108]: the activity at 25 µM turned out to be 86.1% under setting [9], 90.5% under setting [10], 80.2% under setting [11] and 87.6% under setting [12]. Besides, the activity at 100 µM reads like this: under setting [13], 82.9%; under setting [14], 79.8%; under setting [15], 82.7%; under setting [16], 86.3%.
For the compound `COc1cc(Cc2cnc(N)nc2N)c2c(c1OC)OC(C1CC1)C=C2` (stereo not drawn) [MMV1613563], the activity at 25 µM runs as follows: under setting [22], 99.9%; under setting [10], 106%; under setting [11], 107%; under setting [12], 86.9%. Besides, the activity at 100 µM under setting [23] amounted to 91.5%, the activity at 100 µM under setting [27] was 93.6% and the activity at 100 µM under setting [28] was 87.7%. Further, where the note is “replicate 2”, the Percent fungal survival at 100 µM came to 93.2%.
For `CCNC(=O)Nc1cn2c(-c3ncc(CC)cn3)cc(-c3cccnc3)cc2n1` [MMV1782403], the activity at 25 µM runs as follows: under setting [17], 109%; under setting [10], 109%; under setting [11], 132%; under setting [12], 85.2%. Also, the activity at 100 µM is, setting by setting: under setting [19], 84.3%; under setting [27], 77.2%; under setting [28], 96.3%. Moreover, under “replicate 2”, the Percent fungal survival at 100 µM worked out at 79.4%.
`COc1cc(NCc2ccc3nc(N)nc(N)c3c2C)cc(OC)c1OC` [MMV1580173]: the activity at 25 µM stood at 73.6% under setting [9], 96.5% under setting [10], 46.2% under setting [11] and 78.3% under setting [12]. The activity at 100 µM is 55.4% under setting [13], 74.1% under setting [14], 4.19% under setting [15] and 88% under setting [16].
With `C[C@H](NC(=O)C(=O)Nc1ccccc1C(C)(C)C)C(=O)N[C@@H](CC(=O)O)C(=O)COc1c(F)c(F)cc(F)c1F` [MMV1580794], the activity at 25 µM is, setting by setting: under setting [17], 43.5%; under setting [10], 71.1%; under setting [11], -10.5%; under setting [12], 70%. The activity at 100 µM runs as follows: under setting [19], 70.9%; under setting [27], 64.2%; under setting [28], 87.8%. Moreover, the Percent fungal survival at 100 µM (replicate 2) stood at 60.7%.
